Key:
Type in all cases: biochemical
Kdr = biological target: T1, Kdr (Homo sapiens, UniProt P35968); test: Z'-Lyte FRET kinase assay (Invitrogen), Kdr; conditions: read-out: IC50, activity toward kinase Kdr
T1 construct: purchased Invitrogen (assay run by Invitrogen)

B-Raf = biological target: T2, B-Raf (Homo sapiens, UniProt P15056); test: AlphaScreen kinase assay, B-Raf; conditions: read-out: IC50, activity toward kinase B-Raf
T2 construct: purchased Upstate Biotechnology

FGFR1 = biological target: T3, FGFR1 (Homo sapiens, UniProt P11362, C488A/C584S); test: AlphaScreen kinase assay, FGFR1; conditions: read-out: IC50, activity toward kinase FGFR
T3 construct: P1351.pET N6 BI-PTP FGFR A458-E765-X C488A, C584S; made in house; host or cells: E. coli (PTP1B co-expressed)
T3 sequence (P11362 458-765 C488A/C584S): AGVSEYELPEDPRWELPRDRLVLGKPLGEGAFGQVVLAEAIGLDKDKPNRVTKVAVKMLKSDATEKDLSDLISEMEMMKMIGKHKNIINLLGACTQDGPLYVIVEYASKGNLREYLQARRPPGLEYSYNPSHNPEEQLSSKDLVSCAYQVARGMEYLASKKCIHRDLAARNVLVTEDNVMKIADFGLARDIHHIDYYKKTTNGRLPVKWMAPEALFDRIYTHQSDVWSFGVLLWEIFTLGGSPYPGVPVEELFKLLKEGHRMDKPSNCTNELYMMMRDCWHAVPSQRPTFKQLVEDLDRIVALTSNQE

Ret = biological target: T4, Ret (Homo sapiens, UniProt P07949); test: AlphaScreen kinase assay, Ret; conditions: read-out: IC50, activity toward kinase Ret
T4 construct: P1378.pET-SF BI-PTP RET H661-R1012 HIS; made in house
T4 sequence (P07949 with tags, fused parts or gaps): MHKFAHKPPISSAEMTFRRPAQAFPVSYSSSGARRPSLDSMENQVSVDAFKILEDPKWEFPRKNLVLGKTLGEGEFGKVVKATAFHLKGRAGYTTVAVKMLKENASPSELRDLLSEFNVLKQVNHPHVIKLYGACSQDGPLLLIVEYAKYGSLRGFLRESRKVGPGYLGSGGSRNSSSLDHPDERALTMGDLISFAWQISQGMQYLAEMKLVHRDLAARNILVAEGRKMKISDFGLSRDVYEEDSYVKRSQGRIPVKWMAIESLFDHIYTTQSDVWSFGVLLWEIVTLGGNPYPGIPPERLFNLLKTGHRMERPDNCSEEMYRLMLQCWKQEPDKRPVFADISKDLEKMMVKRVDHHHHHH

B-Raf V600E = biological target: T5, B-Raf V600E (Homo sapiens, UniProt P15056, V600E); test: AlphaScreen kinase assay, B-Raf V600E; conditions: read-out: IC50, activity toward kinase B-Raf V600E
T5 construct: P4254. pFastBacBD-CDC37 BRAF D437-K722-X, V600E; His6 with pFastBac HT leader (TEV site) (N); made in house; host or cells: Sf9 (baculovirus; chaperone CDC37 co-expressed)
T5 sequence (P15056 with tags, fused parts or gaps V600E): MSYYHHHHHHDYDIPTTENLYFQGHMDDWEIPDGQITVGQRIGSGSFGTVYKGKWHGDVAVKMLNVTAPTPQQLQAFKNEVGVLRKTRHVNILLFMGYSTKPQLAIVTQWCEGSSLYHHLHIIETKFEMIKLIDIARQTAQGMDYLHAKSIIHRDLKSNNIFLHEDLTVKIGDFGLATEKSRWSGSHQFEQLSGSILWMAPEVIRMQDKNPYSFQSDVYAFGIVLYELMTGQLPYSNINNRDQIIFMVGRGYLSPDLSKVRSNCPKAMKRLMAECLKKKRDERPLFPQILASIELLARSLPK

Fms = biological target: T6, Fms (Homo sapiens, UniProt P07333); test: AlphaScreen kinase assay, Fms; conditions: read-out: IC50, activity toward kinase Fms
T6 construct: purchased Upstate Biotechnology
T6 sequence (P07333 20-972): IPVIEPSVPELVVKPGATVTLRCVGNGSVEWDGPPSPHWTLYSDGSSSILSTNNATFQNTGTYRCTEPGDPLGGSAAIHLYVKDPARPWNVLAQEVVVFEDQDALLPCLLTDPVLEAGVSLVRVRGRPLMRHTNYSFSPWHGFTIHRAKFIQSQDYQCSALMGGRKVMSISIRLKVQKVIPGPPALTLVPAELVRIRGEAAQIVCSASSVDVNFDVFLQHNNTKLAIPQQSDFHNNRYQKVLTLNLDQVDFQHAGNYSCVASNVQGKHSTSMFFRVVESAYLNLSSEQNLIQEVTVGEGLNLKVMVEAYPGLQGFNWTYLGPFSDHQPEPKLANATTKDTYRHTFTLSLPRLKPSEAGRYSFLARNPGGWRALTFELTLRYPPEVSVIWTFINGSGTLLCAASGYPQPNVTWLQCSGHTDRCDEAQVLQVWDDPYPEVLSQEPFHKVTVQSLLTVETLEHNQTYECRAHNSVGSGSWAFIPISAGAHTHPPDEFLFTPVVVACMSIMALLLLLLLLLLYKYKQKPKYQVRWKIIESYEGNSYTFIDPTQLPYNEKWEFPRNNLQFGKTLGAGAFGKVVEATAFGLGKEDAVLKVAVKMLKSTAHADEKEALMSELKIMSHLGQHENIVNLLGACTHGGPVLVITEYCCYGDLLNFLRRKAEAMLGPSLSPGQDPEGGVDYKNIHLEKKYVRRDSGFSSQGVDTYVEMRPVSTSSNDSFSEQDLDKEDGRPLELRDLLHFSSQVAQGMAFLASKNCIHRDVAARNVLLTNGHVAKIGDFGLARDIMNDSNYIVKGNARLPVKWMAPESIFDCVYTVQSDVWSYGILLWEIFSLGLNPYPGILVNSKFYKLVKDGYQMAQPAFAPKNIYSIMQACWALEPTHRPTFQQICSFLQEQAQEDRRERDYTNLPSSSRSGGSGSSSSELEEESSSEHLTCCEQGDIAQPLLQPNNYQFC

Kit = biological target: T7, Kit (Homo sapiens, UniProt P10721); test: AlphaScreen kinase assay, Kit; conditions: read-out: IC50, activity toward kinase Kit
T7 construct: P1332.N6 BI PTP KIT M552-K948-X COD; His6 (N); made in house; host or cells: E. coli (PTP1B co-expressed)
T7 sequence (P10721 with tags, fused parts or gaps): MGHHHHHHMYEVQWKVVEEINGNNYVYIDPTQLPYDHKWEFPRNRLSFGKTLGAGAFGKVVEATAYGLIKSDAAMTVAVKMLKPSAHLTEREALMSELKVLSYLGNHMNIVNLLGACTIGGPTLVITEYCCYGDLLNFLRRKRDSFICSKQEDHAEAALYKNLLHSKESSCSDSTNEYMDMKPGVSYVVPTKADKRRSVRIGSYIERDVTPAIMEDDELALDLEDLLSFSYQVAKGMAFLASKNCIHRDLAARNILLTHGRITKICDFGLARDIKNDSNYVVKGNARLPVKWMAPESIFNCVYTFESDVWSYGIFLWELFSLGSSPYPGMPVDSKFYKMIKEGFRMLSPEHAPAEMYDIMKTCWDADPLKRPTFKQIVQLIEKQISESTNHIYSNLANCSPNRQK

Measured: IC50

T1 sequence (P35968 20-1356): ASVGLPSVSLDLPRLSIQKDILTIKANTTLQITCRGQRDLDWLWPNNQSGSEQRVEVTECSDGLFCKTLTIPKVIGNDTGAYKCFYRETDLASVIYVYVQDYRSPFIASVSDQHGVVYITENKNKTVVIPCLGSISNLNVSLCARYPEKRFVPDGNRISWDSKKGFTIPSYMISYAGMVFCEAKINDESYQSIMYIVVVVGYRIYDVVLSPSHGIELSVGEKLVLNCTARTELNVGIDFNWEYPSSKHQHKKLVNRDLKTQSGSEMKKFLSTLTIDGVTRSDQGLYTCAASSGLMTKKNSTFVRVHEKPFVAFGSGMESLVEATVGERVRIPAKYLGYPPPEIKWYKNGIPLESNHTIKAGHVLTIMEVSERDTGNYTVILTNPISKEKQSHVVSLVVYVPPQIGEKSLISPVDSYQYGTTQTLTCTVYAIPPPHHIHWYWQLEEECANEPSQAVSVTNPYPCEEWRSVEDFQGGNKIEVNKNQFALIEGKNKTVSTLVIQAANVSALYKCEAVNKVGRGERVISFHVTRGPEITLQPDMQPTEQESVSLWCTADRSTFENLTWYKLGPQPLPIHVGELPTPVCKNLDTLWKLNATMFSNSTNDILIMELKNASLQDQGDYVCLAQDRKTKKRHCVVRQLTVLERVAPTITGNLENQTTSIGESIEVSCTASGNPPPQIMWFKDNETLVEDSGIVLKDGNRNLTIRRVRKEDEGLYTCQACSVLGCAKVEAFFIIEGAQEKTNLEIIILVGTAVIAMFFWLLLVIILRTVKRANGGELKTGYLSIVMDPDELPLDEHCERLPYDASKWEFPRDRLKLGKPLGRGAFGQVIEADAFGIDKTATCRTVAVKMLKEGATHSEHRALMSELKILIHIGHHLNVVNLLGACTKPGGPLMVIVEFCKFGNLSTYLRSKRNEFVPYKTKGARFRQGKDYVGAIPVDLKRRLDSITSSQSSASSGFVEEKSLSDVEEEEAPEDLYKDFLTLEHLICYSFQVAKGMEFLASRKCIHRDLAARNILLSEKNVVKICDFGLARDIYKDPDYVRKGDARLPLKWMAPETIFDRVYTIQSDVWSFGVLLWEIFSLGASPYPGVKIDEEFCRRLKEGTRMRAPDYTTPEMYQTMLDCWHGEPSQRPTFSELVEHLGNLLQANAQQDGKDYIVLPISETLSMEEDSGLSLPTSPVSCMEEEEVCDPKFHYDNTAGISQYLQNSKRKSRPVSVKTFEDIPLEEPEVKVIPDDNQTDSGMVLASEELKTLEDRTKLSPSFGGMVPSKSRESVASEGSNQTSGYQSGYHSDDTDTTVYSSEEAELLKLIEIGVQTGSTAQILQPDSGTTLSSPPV
T2 sequence (P15056 whole entry): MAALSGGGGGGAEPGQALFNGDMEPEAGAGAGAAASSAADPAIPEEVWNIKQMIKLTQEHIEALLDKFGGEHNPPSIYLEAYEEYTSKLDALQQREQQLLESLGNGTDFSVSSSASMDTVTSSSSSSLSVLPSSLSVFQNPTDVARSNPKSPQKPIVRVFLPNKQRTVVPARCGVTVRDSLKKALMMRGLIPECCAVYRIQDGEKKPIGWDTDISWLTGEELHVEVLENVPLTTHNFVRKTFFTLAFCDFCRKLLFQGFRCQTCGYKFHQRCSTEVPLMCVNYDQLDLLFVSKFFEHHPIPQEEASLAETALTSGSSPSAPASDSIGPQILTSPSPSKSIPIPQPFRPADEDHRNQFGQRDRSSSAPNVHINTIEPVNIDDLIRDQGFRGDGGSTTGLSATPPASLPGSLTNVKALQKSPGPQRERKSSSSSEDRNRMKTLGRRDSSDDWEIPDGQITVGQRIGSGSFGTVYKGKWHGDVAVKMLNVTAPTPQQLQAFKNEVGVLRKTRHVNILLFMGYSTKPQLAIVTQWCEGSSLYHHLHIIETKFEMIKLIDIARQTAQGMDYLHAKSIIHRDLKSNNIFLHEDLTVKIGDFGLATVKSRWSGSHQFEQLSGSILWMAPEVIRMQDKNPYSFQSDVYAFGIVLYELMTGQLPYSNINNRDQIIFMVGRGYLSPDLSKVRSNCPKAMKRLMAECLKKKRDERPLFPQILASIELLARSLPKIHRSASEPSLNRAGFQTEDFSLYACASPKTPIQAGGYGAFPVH

CC(=O)Nc1cccc(-c2cnc3[nH]cc(C(=O)c4cc(O)ccc4F)c3c2)c1 [Compound P-0001]
≤ 10 µM: all assays above

Nc1cccc(-c2cnc3[nH]cc(C(=O)c4cc(O)ccc4F)c3c2)c1 [Compound P-0002]
not listed: Kdr
≤ 10 µM: all other assays above

Nc1cccc(-c2cnc3[nH]cc(C(=O)c4cccc(O)c4)c3c2)c1 [Compound P-0003]
≤ 10 µM: all assays above

Nc1cccc(-c2cnc3[nH]cc(C(=O)c4cccc(O)c4F)c3c2)c1 [Compound P-0004, [5-(3-amino-phenyl)-1H-pyrrolo[2,3-b]pyridin-3-yl]-(2-fluoro-3-hydroxy-phenyl)methanone]
not listed: Kdr
≤ 10 µM: all other assays above

CS(=O)(=O)c1cccc(-c2cnc3[nH]cc(C(=O)c4cc(O)ccc4F)c3c2)c1 [Compound P-0008, (2-Fluoro-5-hydroxy-phenyl)-[5-(3-methanesulfonyl-phenyl)-1H-pyrrolo[2,3-b]pyridin-3-yl]-methanone]
not listed: Kdr
≤ 10 µM: all other assays above

O=C(c1cccc(O)c1)c1c[nH]c2ncc(Nc3ccccc3)cc12 [Compound P-0025]
not listed: Kit
≤ 10 µM: all other assays above

CS(=O)(=O)c1cccc(-c2cnc3[nH]cc(C(=O)c4cccc(O)c4F)c3c2)c1 [Compound P-0026, (2-Fluoro-3-hydroxy-phenyl)-[5-(3-methanesulfonylphenyl)1H-pyrrolo[2,3-b]pyridin-3-yl]-methanone]
not listed: Kdr
≤ 10 µM: all other assays above

NC(=O)c1cccc(-c2cnc3[nH]cc(C(=O)c4cccc(O)c4F)c3c2)c1 [Compound P-0034, 3-[3-(2-Fluoro-3-hydroxy-benzoyl)-1H-pyrrolo[2,3-b]pyridin-5-yl]benzamide]
not listed: Kdr
≤ 10 µM: all other assays above

CC(=O)Nc1cccc(-c2cnc3[nH]cc(C(=O)c4cccc(O)c4F)c3c2)c1 [Compound P-0035, N-{3-[3-(2-Fluoro-3-hydroxy-benzoyl)-1H-pyrrolo[2,3-b]pyridin-5-yl]-phenyl}-acetamide]
not listed: Kdr
≤ 10 µM: all other assays above

CS(=O)(=O)Nc1cccc(-c2cnc3[nH]cc(C(=O)c4cccc(O)c4F)c3c2)c1 [Compound P-0038, N-{3-[3-(2-Fluoro-3-hydroxy-benzoyl)-1H-pyrrolo[2,3-b]pyridin-5-yl]-phenyl}-methanesulfonamide]
not listed: Kdr
≤ 10 µM: all other assays above

O=C(c1cccc(O)c1)c1c[nH]c2nccc(-c3cc(F)cc(F)c3)c12 [Compound P-0039]
not listed: B-Raf | Fms
≤ 10 µM: all other assays above

Cn1cc(C(F)(F)F)c(-c2ccc(S(=O)(=O)NCc3c[nH]c4ncccc34)s2)n1 [Compound P-0041]
not listed: Fms
≤ 10 µM: all other assays above

Cc1ccc(S(=O)(=O)NCc2c[nH]c3ncccc23)cc1 [Compound P-0058]
≤ 10 µM: FGFR1 | Ret

Fc1cc(F)cc(-c2ccnc3[nH]cc(Sc4ccccn4)c23)c1 [Compound P-0106]
≤ 10 µM: Kdr

O=C(c1cccc(O)c1F)c1c[nH]c2ncc(-c3cccs3)cc12 [Compound P-0521, (2-fluoro-3-hydroxy-phenyl)-(5-thiophen-2-yl-1H-pyrrolo[2,3-b]pyridin-3-yl)-methanone]
not listed: Fms
≤ 10 µM: all other assays above

CCCS(=O)(=O)Nc1ccc(F)c(C(=O)c2c[nH]c3ncc(OC)cc23)c1F [Compound P-0806, Propane-1-sulfonic acid [2,4-difluoro-3-(5-methoxy-1H-pyrrolo[2,3-b]pyridine-3-carbonyl)-phenyl]-amide]
not listed: Ret
≤ 10 µM: all other assays above

CCCC(=O)Nc1ccc(F)c(Cc2c[nH]c3ncc(-c4cccnc4)cc23)c1F [Compound P-1280]
not listed: Ret
≤ 10 µM: all other assays above

CCCCNC(=O)Nc1ccc(F)c(C(=O)c2c[nH]c3ncc(-c4cccnc4)cc23)c1F [Compound P-1318, 1-Butyl-3-[2,4-difluoro-3-(5-pyridin-3-yl-1H-pyrrolo[2,3-b]pyridine-3-carbonyl)-phenyl]-urea]
not listed: Ret
≤ 10 µM: all other assays above

COc1cccc(C(=O)c2c[nH]c3ncc(-c4cccc(NC(C)=O)c4)cc23)c1F [Compound P-1336, N-{3-[3-(2-Fluoro-3-methoxy-benzoyl)-1H-pyrrolo[2,3-b]pyridin-5-yl]-phenyl}-acetamide]
not listed: Kdr | Ret
≤ 10 µM: all other assays above

OCCOc1ccc(F)c(Cc2c[nH]c3ncc(-c4cccnc4)cc23)c1F [Compound P-1394, 2-[2,4-Difluoro-3-(5-pyridin-3-yl-1H-pyrrolo[2,3-b]pyridin-3-ylmethyl)-phenoxy]-ethanol]
not listed: B-Raf | Ret
≤ 10 µM: all other assays above

COc1cc(OC)cc(C(=O)c2c[nH]c3ncc(-c4cccc(NS(C)(=O)=O)c4)cc23)c1 [Compound P-1426, N-{3-[3-(3,5-Dimethoxy-benzoyl)-1H-pyrrolo[2,3-b]pyridin-5-yl]-phenyl}-methanesulfonamide]
not listed: B-Raf | Ret
≤ 10 µM: all other assays above
